Experimental data taken from patent publication US7056917B2, “Drug efflux pump inhibitor” (Daiichi Pharmaceutical Co., Ltd., priority 2001, dated 2006).

Tested on: Pseudomonas aeruginosa PAM 1723 strain highly expressing the drug efflux pump
Experiment: Effect of combined use with antimicrobial agent (levofloxacin, aztreonam) on multidrug resistant Pseudomonas aeruginosa
Assay type: cell-based
Conditions: 18 hours, MHB; for MPC8 AZT: minimum concentration of test compound required to enhance antibacterial activity of aztreonam at 1/8 or less of MIC; for MPC4 LVFX: minimum concentration of test compound required to enhance antibacterial activity of levofloxacin applied at 1/4 of MIC; for MPC8 LVFX: minimum concentration of test compound required to enhance antibacterial activity of levofloxacin applied at 1/8 or less of MIC
From the text: Effect of Combined Use with Antimicrobial Agent on Multidrug Resistant Pseudomonas aeruginosa
As multidrug resistant Pseudomonas aeruginosa, Pseudomonas aeruginosa PAM 1723 strain highly expressing the drug efflux pump was used. As antimicrobial drugs for the combinational uses, levofloxacin (LVFX) as a quinolone antibacterial agent and aztreonam (AZT) as a monobactam antibiotic were used. Each of the compounds shown in Table 1 with Example No., which falls within the compounds of the present invention, was subjected to the measurement of its minimum concentration (μg/ml) that was required to enhance the antibacterial activity of levofloxacin when the test compound was used in combination with levofloxacin applied at a concentration of 1/4, or 1/8 or less of the minimum inhibitory concentration against the PAM 1723 strain. […] Effects as combinational uses for 18 hours was indicated for each of the drugs. Effects were determined by visually observing the turbidity of the medium. The Müller-Hinton broth (MHB, Difco) was used as a medium, and the inoculum of the bacteria was 1×10^6 CFU/ml.

Structure (SMILES) | MPC8 AZT [µg/mL] | MPC4 LVFX | MPC8 LVFX [µg/mL]
CC(C)c1csc(CCc2ccn3c(=O)c(/C=C4/SC(=O)NC4=O)c(N4CCOCC4)nc3c2)n1 [Example 141, 5-(1-{8-[2-(4-Isopropyl-1,3-thiazol-2-yl)ethyl]-2-morpholino-4-oxo-4H-pyrido[1,2-a]pyrimidin-3-yl}methylidene)-1,3-thiazolidine-2,4-dione] | 2 | 0.25 µg/mL | 16
CC(C)c1csc(CCc2ccn3c(=O)c(/C=C(\F)C(=O)O)c(N4CCOCC4)nc3c2)n1 [Example 135, (Z)-2-Fluoro-3-{8-[2-(4-isopropyl-1,3-thiazol-2-yl)ethyl]-2-morpholino-4-oxo-4H-pyrido[1,2-a]pyrimidin-3-yl}-2-propenoic acid] | 8 | 4 µg/mL | 16
CC(C)c1csc(CCc2ccn3c(=O)c(/C=C/C(=O)[O-])c(N4CCN(C(=O)C[N+]56CCC(CC5)CC6)CC4)nc3c2)n1 [Example 94, (E)-3-{2-4-[2-(1-Azabicyclo[2.2.2]oct-1-yl)acetyl]piperazino-8-[2-(4-isopropyl-1,3-thiazol-2-yl)ethyl]-4-oxo-4H-pyrido[1,2-a]pyrimidin-3-yl}-2-propenoic acid] | 16 | 4 µg/mL | 16
CCn1cc(-c2nn[nH]n2)c(=O)c2ccc(/C=C/c3nc(C(C)C)cs3)nc21 [Example 155, 1-Ethyl-7-[(E)-2-(4-isopropyl-1,3-thiazol-2-yl)-1-ethenyl]-3-(1H-1,2,3,4-tetrazol-5-yl)-1,4-dihydro[1,8]naphthylidin-4-one] | 2 | 0.25 µg/mL | 2
CC(C)c1csc(CCc2ccn3c(=O)c(/C=C/C(=O)O)c(-c4ccncc4)nc3c2)n1 [Example 130] | 8 | 2 µg/mL | 8
CC(C)(C)c1csc(NC(=O)c2ccn3c(=O)c(/C=C/C(=O)O)c(N4CCC[C@@H](OC(N)=O)C4)nc3c2)n1 [Example 18, (E)-3-[2-{(3R)-3-[(Aminocarbonyl)oxy]hexahydro-1-pyridinyl}-8-({[4-(tert-butyl)-1,3-thiazol-2-yl]amino}carbonyl)-4-oxo-4H-pyrido[1,2-a]pyrimidin-3-yl]-2-propenoic acid] | 0.5 | ≦0.25 μg/ml | 1
CC(C)c1csc(/C=C/c2ccn3c(=O)c(/C=C/C(=O)O)c(OCC4CCOC4)nc3c2)n1 (stereo not drawn) [Example 117, (E)-3-{8-[(E)-2-(4-Isopropyl-1,3-thiazol-2-yl)-1-ethenyl]-4-oxo-2-(tetrahydro-3-furanylmethoxy)-4H-pyrido[1,2-a]pyrimidin-3-yl}-2-propenoic acid] | 4 | 1 µg/mL | 4
CC(C)c1csc(/C=C/c2ccn3c(=O)c(/C=C/C(=O)O)c(N4CCN(C(=O)[C@@H](N)CCCNC(=N)N)CC4)nc3c2)n1 [Example 78, (E)-3-{2-[4-((2 S)-2-Amino-5-{[amino(imino)methyl]amino}pentanoyl)-piperazino]-8-[(E)-2-(4-isopropyl-1,3-thiazol-2-yl)-1-ethenyl]-4-oxo-4H-pyrido[1,2-a]-pyrimidin-3-yl}-2-propenoic acid] | 1 | 0.5 µg/mL | 1
